Results as given in patent US7691416B2, “Methods of treating vascular disease” (priority 2002, dated 2010).

System: intimal hyperplasia after balloon injury of the carotid artery
Test: Balloon injury model of the carotid artery
Assay type: in vivo, rat
Conditions: CO 250 ppm for one hour prior to balloon injury; 14 days after injury; n=8-10
Description: Animals. Male (250-350 g) Brown Norway rats (RT1^n) were used as aortic graft donors and male (250-350 g) Lewis rats (RT11) as recipients. Dawley (400-450 g) rats were used in the balloon injury model. Adult male C57BL/6, C57/S129, p21^−/− and p53^−/− null mice were purchased from Jackson Laboratory (Bar Harbor, Me.). mkk3^(−/−) null mice were generated as described Lu et al. (EMBO. 18:1845-1857 (1999)). The inos^−/− and enos^−/− mice were bred at the University of Pittsburgh. Aortic transplant model. Aortic transplantation was performed as described in Shimizu et al. (Nat. Med. 7:738-741 (2001)). Briefly, 3 to 4 cm of descending aorta was harvested from the donor and implanted between the renal arteries and the aortic bifurcation of the recipient. Both edges of the native abdominal aorta were ligated. Balloon injury model. Balloon angioplasty was carried out as described in Murakami et al. (Atherosclerosis 157:361-368 (2001)). […] [^3H]thymidine incorporation was measured by scintillation spectroscopy and presented as mean counts/min/well. […] Areas from eight to ten captured images were calculated using digital imaging software as number of pixels corresponding to those areas. Twenty-four to forty-eight sections from each group were statistically analyzed with SPSS software version 10. […]

[C-]#[O+] [CO, carbon monoxide]
Intimal hyperplasia, suppression compared to control animals exposed to air: 74±8%
